The values that follow come from US11708344B2, “Flavone derivatives for the treatment and prophylaxis of hepatitis B virus disease” (Hoffmann-La Roche Inc., priority 2018, dated 2023).

Assay [1] has as its system HBeAg (surrogate marker for cccDNA) in HepDES19 cells. The assay can be described thus: Engineered HepDES19 primary screen assay (HBeAg ELISA). Particulars: Hepatitis B virus, HepDES19, 120 h, read-out: IC50 (HBeAg level, HepDES19 primary screen assay), HepDES19 cells, 5 days compound incubation, HBeAg ELISA. In kind it is cell-based, HBV. The method in brief:
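IC50 values come from 4-parameter logistic fits of HBeAg ELISA signal, the cccDNA surrogate, with CCK-8 run in parallel for viability. Compounds at half-log dilutions with 1% DMSO were applied for 5 days at 37 °C to HepDES19 cells previously cultured 8 days without Tet.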
A general note: An ELISA detects its analyte on a solid surface through an enzyme-linked reagent.

The next assay has as its system cccDNA in HepDES19 cells. As to the kind of experiment: cccDNA Southern Blot assay. In kind it is cell-based, HBV. Particulars: 5 days' compound treatment, FIG. 1. The procedure:
HepDES19 cells were seeded at 4*10^6 cells per T150 in the culture medium (Dulbecco's Modified Eagle Medium: Nutrient Mixture F-12 [DMEM-F12, Gibco Cat. 11320-82], 10% Fetal Bovine Serum [FBS, Clontech Cat. 631101], 0.1 mM Non-Essential Amino Acids Solution [NEAA, Gibco Cat. 11140-050], 50 μg/mL Penicillin-Streptomycin [PS, Invitrogen Cat. 15140-163], 500 μg/mL Geneticin [G418, Invitrogen Cat. 10131-027]) in the absence of Tet for 8 days. These cells were seeded at the density of 1×10^6 cells per well in 6-well plate. At 24 hours after seeding, serial dilutions of compounds made with DMSO (Sigma, Cat. D2650) were further diluted with the same culture medium as described above before they were added to the cells to reach desired final compound concentrations and 1% DMSO concentration. After 5 days' compound treatment, the cells growing in one well from 6-well plate were re-suspended with 500 μL re-suspension buffer (50 mM tris [hydroxymethyl]amino methane pH 7.5), 10 mM ethylenediaminetetraacetic acid (EDTA), 50 μg/mL RNase A [Qiagen, Cat. 158922], 500 μL of 1.2% sodium dodecyl sulfate (SDS) was then added into the re-suspended cells to lyse the cells. After 15 minutes' incubation, 700 μL precipitation buffer (3M cesium chloride, 1M potassium acetate, 0.67M acetic acid) was added and the lysate was incubated at 4° C. for 2 h. […]

Structures are written as SMILES.

As to `O=c1cc(-c2ccc(Br)cc2OCCO[C@H]2C[C@@H](C(=O)O)C2)oc2c(Cl)cccc12` [Example C003-A, Cis-3-[2-[5-bromo-2-(8-chloro-4-oxo-chromen-2-yl)phenoxy]ethoxy]cyclobutanecarboxylic acid], the IC50 (commonly the concentration at which inhibition is half-maximal) in assay [1] stood at 1070 nM. Further, in the assay on cccDNA in HepDES19 cells, the “cccDNA level (Southern Blot)” value is recorded as “dose-dependently reduced cccDNA level”.
